Test [1] relates to HMCB cell line. Kind of test: Compound was tested for [Ca2+] mobilization in NPY5 transfected human Bowes melanoma (HMCB) cell line. The test is classed as functional, cell-based.
Test [2] deals with T1, Neuropeptide Y receptor type 5 (Homo sapiens, UniProt Q15761).
T1 sequence (Q15761 whole entry): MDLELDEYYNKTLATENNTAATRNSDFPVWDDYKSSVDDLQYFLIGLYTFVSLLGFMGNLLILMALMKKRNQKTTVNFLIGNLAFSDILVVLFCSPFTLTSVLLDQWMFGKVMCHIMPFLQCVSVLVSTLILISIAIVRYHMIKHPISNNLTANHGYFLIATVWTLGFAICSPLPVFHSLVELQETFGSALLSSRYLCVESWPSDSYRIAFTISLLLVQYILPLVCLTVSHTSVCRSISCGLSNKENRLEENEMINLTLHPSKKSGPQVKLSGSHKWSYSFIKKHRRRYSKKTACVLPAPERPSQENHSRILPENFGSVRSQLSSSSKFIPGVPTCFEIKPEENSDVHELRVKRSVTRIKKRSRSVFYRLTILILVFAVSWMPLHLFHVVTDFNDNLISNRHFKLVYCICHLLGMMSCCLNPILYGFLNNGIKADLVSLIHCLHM
Kind of test: Binding affinity towards human neuropeptide Y receptor type 5 using [125I]-PYY as radioligand in baculovirus-infected Sf9 cells.

The species named for test [3] is Rattus norvegicus. Kind of test: Food intake was measured for a 3-h period in 24-h food deprived rats;+/+ =significant reduction in food intake. The test is classed as functional, organism-based.
Test [4] deals with Rattus norvegicus. Kind of test: Overnight food intake was measured in rat model in which compound was dosed 2 hr prior to onset of the dark cycle;- =no significant reduction in food intake. The test is classed as functional, organism-based.
The subject of test [5] is Rattus norvegicus. Kind of test: Locomotor activity in male Sprague-Dawley rats at 40 mg/kg oral dose. Details: dose 40 mg/kg. The test is classed as functional, organism-based.
The species entered for test [6] is Rattus norvegicus. Kind of test: Food intake was measured for a 3-h period in 24-h food deprived rats;+/- =significant reduction in food intake/- =no significant reduction in food intake. Format: functional, organism-based.
The test system of test [7] is Rattus norvegicus. Kind of test: Overnight food intake was measured in rat model in which compound was dosed 2 hr prior to onset of the dark cycle;+/- =significant reduction in food intake. The test is classed as functional, organism-based.
The species entered for test [8] is Rattus norvegicus. Kind of test: Food intake was measured for a 3-h period in 24-h food deprived rats;+/- =significant reduction in food intake / - =no significant reduction in food intake. The test is classed as functional, organism-based.
Test [9] deals with Rattus norvegicus. Kind of test: Concentration of compound in brain was determined following a dose of 40 mg/kg administered orally at 4 hr. Format: functional, organism-based. Details: dose 40 mg/kg.
Test [10] relates to Rattus norvegicus. Kind of test: Concentration of compound in brain was determined following a dose of 40 mg/kg administered orally at 8 hr. Format: functional, organism-based. Also on record: dose 40 mg/kg.
Test [11] deals with Rattus norvegicus. Kind of test: Concentration of compound in plasma was determined following a dose of 40 mg/kg administered orally at 1 hr. The test is classed as functional, organism-based. Also on record: dose 40 mg/kg.
Test [12] has as its system Rattus norvegicus. Kind of test: Concentration of compound in plasma was determined following a dose of 40 mg/kg administered orally at 2 hr. The test is classed as functional, organism-based. Also on record: dose 40 mg/kg.
In test [13] the test system is Rattus norvegicus. Kind of test: Concentration of compound in plasma was determined following a dose of 40 mg/kg administered orally at 4 hr. The test is classed as functional, organism-based. Also on record: dose 40 mg/kg.
The subject of test [14] is Rattus norvegicus. Kind of test: Concentration of compound in plasma was determined following a dose of 40 mg/kg administered orally at 8 hr. The test is classed as functional, organism-based. Details: dose 40 mg/kg.
Test [15] relates to Rattus norvegicus. Kind of test: Concentration of compound in Cerebrospinal fluid(CSF) was determined following a dose of 40 mg/kg administered orally at 8 hr. Format: functional, organism-based. Details: dose 40 mg/kg.
Test [16] concerns Rattus norvegicus. Kind of test: Concentration of compound in brain was determined following a dose of 40 mg/kg administered orally at 1 hr. The test is classed as functional, organism-based. Details: dose 40 mg/kg.
The test system of test [17] is Rattus norvegicus. Kind of test: Overnight food intake was measured in rat model in which compound was dosed 2 hr prior to onset of the dark cycle; - =no significant reduction in food intake. The test is classed as functional, organism-based.
The species entered for test [18] is Rattus norvegicus. Kind of test: Ratio of the concentrations of compound in Brain to that of Plasma was determined at 1 hr. The test is classed as functional.
For test [19], the species on record is Rattus norvegicus. Kind of test: Ratio of the concentrations of compound in Brain to that of Plasma was determined at 4 hr. Format: functional.
For test [20], the species on record is Rattus norvegicus. Kind of test: Ratio of the concentrations of compound in Brain to that of Plasma was determined at 8 hr. The test is classed as functional.
The species named for test [21] is Rattus norvegicus. Kind of test: Ratio of the concentrations of compound in brain to that of Plasma was determined at 2 hr. Format: functional.
The test system of test [22] is Rattus norvegicus. Kind of test: Concentration of compound in brain was determined following a dose of 40 mg/kg administered orally at 2 hr. Format: functional, organism-based. Details: dose 40 mg/kg.

The values that follow come from ChEMBL document CHEMBL1136300, “Structure-activity relationship studies on 2-heteroaryl-4-arylimidazoles NPY5 receptor antagonists” (Bioorg Med Chem Lett, 2003).

Calls of active or inactive are those of the source. No cut-off for these calls is given here.

Molecule `Cc1ccccc1-c1c[nH]c(-c2cccnc2)n1` displayed an EC50 in test [1] of 52 nM. Moreover, the inhibition constant (Ki) in [2] came out at 40 nM.

In test [2], `N#Cc1ccc(-c2c[nH]c(-c3cccnc3)n2)cc1` registered a Ki of 3000 nM.

In the case of `c1ccc(-c2c[nH]c(-c3ccccc3)n2)cc1`, in test [2], the inhibition constant (Ki) came to 34 nM.

In turn, `Cc1[nH]c(-c2cccnc2)nc1-c1cccc(Cl)c1` showed a 50% effective concentration (EC50) in [1] of 40 nM. In addition, affinity in [2] was put at a Ki of 19 nM.

In the case of `c1ccc(-c2c[nH]c(-c3cccnc3)n2)cc1`, the inhibition constant (Ki) in test [2] stood at 525 nM.

In turn, `Cc1[nH]c(-c2cccnc2)nc1-c1ccc(Cl)cc1` had a Ki in [2] of 69 nM.

Regarding `Clc1ccc(-c2c[nH]c(-c3cnccn3)n2)cc1Cl`, the Ki in test [2] is 40 nM.

Molecule `Cc1cccc(-c2c[nH]c(-c3cccnc3)n2)c1` registered a half-maximal effective concentration (EC50) in [1] of 24 nM. Besides, the affinity in test [2], expressed as Ki, was 14 nM.

Consider `Clc1ccc(-c2c[nH]c(-c3nccc4ccccc34)n2)cc1Cl`, for which the concentration for a half-maximal effect (EC50) in test [1] came to 17 nM. Also, the Ki in test [2] turned out to be 116 nM.

`FC(F)(F)Oc1cccc(-c2c[nH]c(-c3cccnc3)n2)c1` registered a half-maximal effective concentration (EC50) in test [1] of 13 nM. In addition, in test [2], the Ki was determined as 4.9 nM.

Molecule `Clc1ccc(-c2c[nH]c(-c3cccnc3)n2)cc1` gave an inhibition constant (Ki) in [2] of 16 nM. In test [3], the result was Active. In addition, the outcome in [4] was inactive. The Locomotor activity entry in [5] is “Active”.

As to `FC(F)(F)c1cccc(-c2c[nH]c(-c3cccnc3)n2)c1`, a half-maximal effect in test [1] (EC50) was put at 3.2 nM. This molecule showed a Ki in test [2] of 1.6 nM. The outcome in test [6] was inactive. For the same molecule, the result in test [7] was Active. Besides, the Locomotor activity result in test [5] was “Active”.

On to `c1ccc(-c2c[nH]c(-c3ccccn3)n2)cc1`, for which the inhibition constant Ki in test [2] turned out to be 1450 nM.

`Clc1ccc(-c2c[nH]c(-c3cc4ccccc4cn3)n2)cc1Cl`: in test [2], the inhibition constant (Ki) is 4770 nM.

Molecule `Fc1ccc(-c2c[nH]c(-c3cccnc3)n2)cc1F` returned a Ki in [2] of 34 nM.

Take `Clc1ccc(-c2c[nH]c(-c3cccnc3)n2)cc1Cl`: in test [2], the Ki amounted to 4 nM. Besides, the result in test [8] was inactive.

Consider `c1ccc(-c2c[nH]c(-c3ccncc3)n2)cc1`, for which, in test [2], the affinity corresponds to a Ki of 1530 nM.

`COc1ccc(-c2c[nH]c(-c3cccnc3)n2)cc1OC` registered an EC50 in test [1] of 723 nM. In addition, in [2], the inhibition constant Ki was found to be 148 nM.

Take `Clc1cccc(-c2c[nH]c(-c3cccnc3)n2)c1`: the affinity in test [2], expressed as Ki, was 8 nM. Moreover, the result in test [6] and in test [17] was inactive. Also, the Concentration in test [9] is 29 µM; in test [10], 4 µM; in [11] it was 10 µM; in test [12], 11 µM; in test [13], 6.2 µM; in test [14], 1.3 µM. The Concentration was found to be 0.011 µM in test [15], 45 µM in test [16] and 56 µM in test [22]. Also, the Ratio worked out at 4.4 in [18], 4.8 in test [19], 5.3 in [20] and 5.1 in test [21].

`FC(F)(F)c1ccc(-c2c[nH]c(-c3cccnc3)n2)cc1`: the Ki in [2] is 37 nM.

In turn, `Clc1ccc(-c2c[nH]c(-c3ccccn3)n2)cc1Cl` showed an inhibitory constant (Ki) in test [2] of 30 nM.

In [2], `Clc1ccc(-c2c[nH]c(-c3ccncc3)n2)cc1Cl` came in with a Ki of 3.5 nM.

`FC(F)(F)c1ccccc1-c1c[nH]c(-c2cccnc2)n1` yielded a concentration giving a half-maximal response (EC50) in test [1] of 39 nM. The molecule also showed an inhibition constant (Ki) in test [2] of 27 nM.

`FC(F)(F)Oc1ccc(-c2c[nH]c(-c3cccnc3)n2)cc1` displayed an inhibition constant (Ki) in test [2] of 210 nM.

`Clc1ccc(-c2c[nH]c(-c3cnc4ccccc4c3)n2)cc1Cl` returned an inhibition constant Ki in test [2] greater than 10000 nM.

With `Clc1ccccc1-c1c[nH]c(-c2cccnc2)n1`, in test [1], the response was half-maximal at 15 nM (EC50). The molecule further yielded an inhibitory constant (Ki) in [2] of 21 nM.

Turning to `c1cncc(-c2nc(C3CCCCC3)c[nH]2)c1`, in [1], the EC50 was determined as 36 nM. Besides, the affinity in test [2], expressed as Ki, was 231 nM.

Regarding `COc1cccc(-c2c[nH]c(-c3cccnc3)n2)c1`, the response in [1] was half-maximal at 45 nM (EC50). Also, the Ki in test [2] is 56 nM.
